In PMC6802847, “Mutual role of ecto-5'-nucleotidase/CD73 and concentrative nucleoside transporter 3 in the intestinal uptake of dAMP” (PLoS ONE, 2019):

How the values were obtained:
[1] = target: T1, concentrative nucleoside transporter 3 (CNT3) (Homo sapiens, UniProt Q9HAS3); assay: radiolabelled uptake ([…]) in COS-7 cells transiently expressing CNT3 vs mock; format: cell-based
T1 construct: gene SLC28A3
T1 sequence (Q9HAS3 1-691): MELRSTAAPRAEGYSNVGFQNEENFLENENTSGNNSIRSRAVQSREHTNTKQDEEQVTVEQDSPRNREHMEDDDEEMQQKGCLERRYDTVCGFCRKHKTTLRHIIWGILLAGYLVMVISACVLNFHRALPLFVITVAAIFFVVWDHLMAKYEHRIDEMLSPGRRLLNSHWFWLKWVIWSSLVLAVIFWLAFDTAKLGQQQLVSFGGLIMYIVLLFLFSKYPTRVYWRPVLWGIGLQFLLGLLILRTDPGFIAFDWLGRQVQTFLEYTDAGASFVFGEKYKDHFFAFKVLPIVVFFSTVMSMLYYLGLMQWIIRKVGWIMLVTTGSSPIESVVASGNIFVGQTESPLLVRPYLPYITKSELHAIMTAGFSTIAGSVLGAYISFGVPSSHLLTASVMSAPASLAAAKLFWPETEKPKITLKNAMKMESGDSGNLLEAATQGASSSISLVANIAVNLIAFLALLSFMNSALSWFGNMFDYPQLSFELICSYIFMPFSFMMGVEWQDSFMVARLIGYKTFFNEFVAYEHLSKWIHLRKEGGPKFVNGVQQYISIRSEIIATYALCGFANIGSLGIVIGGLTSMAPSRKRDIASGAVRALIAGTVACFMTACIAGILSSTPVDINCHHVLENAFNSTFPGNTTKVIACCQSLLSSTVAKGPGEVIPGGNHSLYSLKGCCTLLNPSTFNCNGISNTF

[2] = target: T1, concentrative nucleoside transporter 3 (CNT3); assay: radiolabelled uptake ([…]) in COS-7 cells transiently expressing CNT3 vs empty vector; format: cell-based
[3] = target: T2, ecto-5'-nucleotidase/CD73 (Homo sapiens, UniProt P21589); assay: phosphate release from […] dAMP in COS-7 cells expressing CD73
T2 construct: gene NT5E
T2 sequence (P21589 27-549): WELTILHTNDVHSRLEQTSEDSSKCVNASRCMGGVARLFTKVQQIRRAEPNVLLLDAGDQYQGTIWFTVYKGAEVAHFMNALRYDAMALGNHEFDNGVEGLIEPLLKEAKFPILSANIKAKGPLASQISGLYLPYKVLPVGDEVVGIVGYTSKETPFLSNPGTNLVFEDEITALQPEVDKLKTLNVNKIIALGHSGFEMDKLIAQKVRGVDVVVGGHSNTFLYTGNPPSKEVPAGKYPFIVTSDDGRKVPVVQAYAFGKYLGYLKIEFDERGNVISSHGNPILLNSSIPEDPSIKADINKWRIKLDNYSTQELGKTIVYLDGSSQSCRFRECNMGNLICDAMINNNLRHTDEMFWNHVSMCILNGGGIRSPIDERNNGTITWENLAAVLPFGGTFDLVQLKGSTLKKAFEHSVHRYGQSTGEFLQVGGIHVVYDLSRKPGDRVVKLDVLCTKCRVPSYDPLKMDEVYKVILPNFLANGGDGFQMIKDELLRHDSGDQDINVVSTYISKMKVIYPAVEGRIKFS

[4] = substrate: Nc1ncnc2c1ncn2C1CC(O)C(CO)O1; assay: cells, lysate or membranes; conditions: Na+
[5] = substrate: Nc1ncnc2c1ncn2[C@H]1C[C@H](O)[C@@H](COP(=O)(O)O)O1; assay: cells, lysate or membranes; conditions: Na+

## Cc1cn([C@H]2C[C@H](O)[C@@H](CO)O2)c(=O)[nH]c1=O [thymidine]
[1]
  radiolabelled uptake (10 nM) in COS-7 cells transiently expressing CNT3 vs mock: Transfection of CNT3 cDNA into COS-7 cells resulted in an increased uptake of [^3H]thymidine, a typical substrate of CNT3

## Nc1ncnc2c1ncn2[C@@H]1O[C@H](COP(=O)(O)O)[C@@H](O)[C@H]1O [Adenosine 5'-monophosphate]
[2]
  radiolabelled uptake (10 nM) in COS-7 cells transiently expressing CNT3 vs empty: enhanced cellular uptake of [^3H]AMP with the introduction of CNT3 alone was greater than that of [^3H]dAMP

## Nc1ncnc2c1ncn2[C@H]1C[C@H](O)[C@@H](COP(=O)(O)O)O1 [2'-deoxyadenosine 5'-monophosphate]
[3]
  phosphate release from 10 μM dAMP in COS-7 cells expressing CD73: the phosphate release from dAMP was significantly increased by the introduction of CD73 into COS-7 cells

B1: concentrative nucleoside transporter 3 (CNT3) (Homo sapiens) (protein)
chain: T1 sequence (Q9HAS3 1-691)
[4]
  Km: 56.3 ± 7.0 µM
[5]
  Km: 59.6 ± 3.8 µM
